Assay: physchem
Details: bicarbonate buffer
Compound `Fc1ccc2c(c1)C1=NCCN1C(=S)S2` has a remaining at 24 h, 5000 µM greater than 95%.
With `N=C1Sc2ccccc2C2=NCCCN12` the remaining at 24 h, 5000 µM was less than 5%.
In the case of `S=C1Sc2cc(Br)ccc2C2=NCCCN12`, the remaining at 24 h, 5000 µM is reported as greater than 95%.
With `Cc1cccc2c1C1=NCCN1C(=S)S2` the remaining at 24 h, 5000 µM was greater than 95%.

Source: ChEMBL document CHEMBL4406872, “Synthesis and structure activity relationship of 1, 3-benzo-thiazine-2-thiones as selective HDAC8 inhibitors” (Eur J Med Chem, 2019)
